# Measured values published in ChEMBL document CHEMBL1275588, “Role of pfmdr1 amplification and expression in induction of resistance to artemisinin derivatives in Plasmodium falciparum” (Antimicrob Agents Chemother, 2010).
# Active and inactive are the calls of the source. The rule behind the calls is not given here.
# What was measured:
# Plasmodium falciparum [1] = experiment: Antimalarial activity against Plasmodium falciparum W2 assessed as level of pfmdr1 mRNA expression organism selected on 40 ng/ml of compound by quantitative real-time RT-PCR with respect to wild type; assay type: functional
# Plasmodium falciparum [2] = experiment: Antimalarial activity against Plasmodium falciparum W2 harboring 2 copy number of pfmdr1 gene organism selected at 40 ng/ml compound concentration; assay type: functional, organism-based
# Plasmodium falciparum [3] = experiment: Antimalarial activity against Plasmodium falciparum W2 harboring 2 copy number of pfmdr1 gene organism selected at 200 ng/ml compound concentration; assay type: functional, organism-based
# Plasmodium falciparum [4] = experiment: Antimalarial activity against Plasmodium falciparum W2 harboring 3 copy number of pfmdr1 gene organism selected at 120 ng/ml compound concentration; assay type: functional, organism-based
# Plasmodium falciparum [5] = experiment: Antimalarial activity against Plasmodium falciparum W2 assessed as level of pfmdr1 mRNA expression organism selected on 80 ng/ml of compound by quantitative real-time RT-PCR with respect to wild type; assay type: functional
# Plasmodium falciparum [6] = experiment: Antimalarial activity against Plasmodium falciparum W2 assessed as inhibition of [3H]hypoxanthine uptake organism selected on 80 ng/mL compound concentration; assay type: functional, organism-based
# Plasmodium falciparum [7] = experiment: Antimalarial activity against Plasmodium falciparum D6 assessed as level of pfmdr1 mRNA expression organism selected on 80 ng/ml of compound by quantitative real-time RT-PCR with respect to wild type; assay type: functional, organism-based
# Plasmodium falciparum [8] = experiment: Antimalarial activity against Plasmodium falciparum TM91C235 assessed as inhibition of [3H]hypoxanthine uptake organism selected on 80 ng/mL compound concentration; assay type: functional, organism-based
# Plasmodium falciparum [9] = experiment: Antimalarial activity against Plasmodium falciparum W2 organism selected on up to 80 ng/ml compound concentration; assay type: functional, organism-based
# Plasmodium falciparum [10] = experiment: Antimalarial activity against Plasmodium falciparum TM91C235 harboring 3 copy number of pfmdr1 gene organism selected at 80 ng/ml compound concentration; assay type: functional, organism-based
# Plasmodium falciparum [11] = experiment: Antimalarial activity against Plasmodium falciparum W2 harboring 3 copy number of pfmdr1 gene organism selected at 80 ng/ml compound concentration; assay type: functional, organism-based
# Plasmodium falciparum [12] = experiment: Antimalarial activity against Plasmodium falciparum D6 harboring 1 copy number of pfmdr1 gene organism selected at up to 80 ng/ml compound concentration; assay type: functional, organism-based
# Plasmodium falciparum [13] = experiment: Antimalarial activity against Plasmodium falciparum TM91C235 assessed as level of pfmdr1 mRNA expression organism selected on 80 ng/ml of compound by quantitative real-time RT-PCR with respect to wild type; assay type: functional
# Plasmodium falciparum [14] = experiment: Antimalarial activity against Plasmodium falciparum TM91C235 assessed as inhibition of [3H]hypoxanthine uptake organism selected on 50 ng/mL compound concentration; assay type: functional, organism-based
# Plasmodium falciparum [15] = experiment: Antimalarial activity against Plasmodium falciparum D6 assessed as inhibition of [3H]hypoxanthine uptake organism selected on 80 ng/ml compound concentration; assay type: functional, organism-based
# Plasmodium falciparum [16] = experiment: Antimalarial activity against Plasmodium falciparum D6 organism selected on 30 ng/ml compound concentration; assay type: functional, organism-based
# Plasmodium falciparum [17] = experiment: Antimalarial activity against Plasmodium falciparum TM91C235 harboring 2 copy number of pfmdr1 gene organism selected at 10 to 50 ng/ml compound concentration; assay type: functional, organism-based
# Plasmodium falciparum [18] = experiment: Antimalarial activity against Plasmodium falciparum W2 assessed as inhibition of [3H]hypoxanthine uptake organism selected on 50 ng/mL compound concentration; assay type: functional, organism-based
# Plasmodium falciparum [19] = experiment: Antimalarial activity against Plasmodium falciparum W2 harboring 1 copy number of pfmdr1 gene organism selected at 10 to 30 ng/ml compound concentration; assay type: functional, organism-based
# Plasmodium falciparum [20] = experiment: Antimalarial activity against Plasmodium falciparum W2 assessed as inhibition of [3H]hypoxanthine uptake; assay type: functional, organism-based
# Plasmodium falciparum [21] = experiment: Antimalarial activity against Plasmodium falciparum TM91C235 assessed as inhibition of [3H]hypoxanthine uptake; assay type: functional, organism-based
# Plasmodium falciparum [22] = experiment: Antimalarial activity against Plasmodium falciparum W2 organism selected on 40 ng/ml compound concentration; assay type: functional, organism-based
# Plasmodium falciparum [23] = experiment: Antimalarial activity against Plasmodium falciparum W2 harboring 3 copy number of pfmdr1 gene organism selected at 50 ng/ml compound concentration; assay type: functional, organism-based
# Plasmodium falciparum [24] = experiment: Antimalarial activity against Plasmodium falciparum TM91C235 selected on 30 ng/ml compound concentration; assay type: functional, organism-based
# Plasmodium falciparum [25] = experiment: Antimalarial activity against Plasmodium falciparum D6 assessed as inhibition of [3H]hypoxanthine uptake organism selected on 50 ng/ml compound concentration; assay type: functional, organism-based
# Plasmodium falciparum [26] = experiment: Antimalarial activity against Plasmodium falciparum D6 assessed as inhibition of [3H]hypoxanthine uptake; assay type: functional, organism-based
smiles,measurement,setting,value
C[C@@H]1CC[C@H]2[C@@H](C)C(=O)O[C@@H]3O[C@@]4(C)CC[C@@H]1[C@]32OO4 [ARTEMISININ],fold change (FC),Plasmodium falciparum [1],2.2
same,Activity,Plasmodium falciparum [2],inactive
same,Activity,Plasmodium falciparum [3],inactive
C[C@@H]1[C@H](OCc2ccc(C(=O)O)cc2)O[C@@H]2O[C@@]3(C)CC[C@@H]4[C@@H](C)CC[C@@H]1[C@]24OO3 [ARTELINIC ACID],Activity,Plasmodium falciparum [4],Active
same,fold change (FC),Plasmodium falciparum [5],3
same,IC50,Plasmodium falciparum [6],0.0227 µM
same,IC90,Plasmodium falciparum [6],0.0568 µM
same,Activity,Plasmodium falciparum [7],Active
same,IC50,Plasmodium falciparum [8],0.0246 µM
same,IC90,Plasmodium falciparum [8],0.0759 µM
same,Activity,Plasmodium falciparum [9],inactive
same,Activity,Plasmodium falciparum [10],Active
same,Activity,Plasmodium falciparum [11],inactive
same,Activity,Plasmodium falciparum [12],inactive
same,fold change (FC),Plasmodium falciparum [13],2.1
same,IC50,Plasmodium falciparum [14],0.0337 µM
same,IC90,Plasmodium falciparum [14],0.0535 µM
same,IC50,Plasmodium falciparum [15],0.0236 µM
same,IC90,Plasmodium falciparum [15],0.0759 µM
same,Activity,Plasmodium falciparum [16],inactive
same,Activity,Plasmodium falciparum [17],inactive
same,IC50,Plasmodium falciparum [18],0.0233 µM
same,IC90,Plasmodium falciparum [18],0.0513 µM
same,Activity,Plasmodium falciparum [19],Active
same,IC50,Plasmodium falciparum [20],0.00437 µM
same,IC90,Plasmodium falciparum [20],0.00745 µM
same,IC50,Plasmodium falciparum [21],0.0111 µM
same,IC90,Plasmodium falciparum [21],0.023 µM
same,Activity,Plasmodium falciparum [22],inactive
same,Activity,Plasmodium falciparum [23],inactive
same,Activity,Plasmodium falciparum [24],inactive
same,IC50,Plasmodium falciparum [25],0.034 µM
same,IC90,Plasmodium falciparum [25],0.0813 µM
same,IC90,Plasmodium falciparum [26],0.0218 µM
